Laboratory results published in ChEMBL document CHEMBL1142922, “Amphipathic benzoic acid derivatives: synthesis and binding in the hydrophobic tunnel of the zinc deacetylase LpxC” (Bioorg Med Chem, 2007).
Activity calls are given as the source filed them. No cut-off for these calls is given here.

Biological target: T1, UDP-3-O-acyl-N-acetylglucosamine deacetylase (Aquifex aeolicus (strain VF5)) (UniProt O67648)
T1 sequence (whole entry): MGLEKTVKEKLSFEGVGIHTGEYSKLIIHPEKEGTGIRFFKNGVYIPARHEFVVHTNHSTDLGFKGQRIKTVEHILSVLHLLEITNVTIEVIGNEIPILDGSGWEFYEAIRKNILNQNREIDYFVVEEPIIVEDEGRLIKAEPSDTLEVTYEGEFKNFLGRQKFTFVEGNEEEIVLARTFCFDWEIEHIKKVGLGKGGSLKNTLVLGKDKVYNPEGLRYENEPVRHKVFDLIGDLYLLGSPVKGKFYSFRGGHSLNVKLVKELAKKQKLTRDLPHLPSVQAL
Assay: (§1) Binding affinity to Aquifex aeolicus LpxC by isothermal titration calorimetry

Row | Structure (SMILES) | Activity
1 | COc1ccc(C(=O)O)cc1 | inactive
2 | CCCc1ccc(-c2ccc(C(=O)O)cc2)cc1 | inactive

Biological target: T2, UDP-3-O-acyl-N-acetylglucosamine deacetylase (Aquifex aeolicus (strain VF5), UniProt O67648)
T2 sequence (O67648 whole entry): T1 sequence (whole entry)
Assay: as §1

Row | Structure (SMILES) | Kd [µM]
3 | CCCCCCCc1ccc(C(=O)O)cc1 | 35
4 | CCCCCCCOc1ccc(CC(=O)O)cc1 | 2.6
5 | CCCCCCCOc1ccc(C(=O)O)cc1 | 2.3
6 | CCCCCCCOc1ccc(C(=O)O)cc1[N+](=O)[O-] | 6.4
7 | CCCCCC/C=C/c1ccc(C(=O)O)cc1 | 6.2
8 | CCCCCCCOc1ccc(C(=O)O)cc1Cl | 30
9 | CCCCCCCOc1ccc(C(=O)O)cc1OC | 8.6
10 | CCCCCCCOc1ccc(C(=O)O)cc1O | 9
